Data taken from ChEMBL document CHEMBL3813627, “Preventive effect of a novel diosgenin derivative on arterial and venous thrombosis in vivo” (Bioorg Med Chem Lett, 2016).

What was measured:
Mus musculus [1] = experiment: Toxicity in Balb/c mouse assessed as white blood cell count at 66.2 mg/kg, ig bid for 7 days (reference value: 7.7 +/- 0.65 10^9/L); type: organism-based; settings: in vivo, po, 168 h
Mus musculus [2] = experiment: Toxicity in Balb/c mouse assessed as hemoglobin count at 66.2 mg/kg, ig bid for 7 days (reference value: 143 +/- 11.9 g/L); type: organism-based; settings: in vivo, po, 168 h
Mus musculus [3] = experiment: Toxicity in Balb/c mouse assessed as hematocrit at 66.2 mg/kg, ig bid for 7 days (reference value: 40.5 +/- 3.5 %); type: organism-based; settings: in vivo, po, 168 h
Rattus norvegicus [4] = organism: Rattus norvegicus; experiment: Gastric toxicity in Sprague-Dawley rat assessed as gastric mucosal damage score treated for 49 days by hematoxylin and eosin staining based microscopic analysis; type: organism-based, Gastric mucosa; settings: in vivo, 1176 h
Rattus norvegicus [5] = organism: Rattus norvegicus; experiment: Gastric toxicity in Sprague-Dawley rat assessed as angiogenesis treated for 49 days by hematoxylin and eosin staining based microscopic analysis; type: organism-based; settings: in vivo, 1176 h
Rattus norvegicus [6] = organism: Rattus norvegicus; experiment: Gastric toxicity in Sprague-Dawley rat assessed as fibrotic changes treated for 49 days by hematoxylin and eosin staining based microscopic analysis; type: organism-based; settings: in vivo, 1176 h
Rattus norvegicus [7] = experiment: Antiplatelet activity in platelet-rich plasma isolated from Sprague-Dawley rat assessed as ADP-induced platelet aggregation at 46 mg/kg, ig bid for 7 days measured for 5 mins by light transmission aggregometry (reference value: 57.57 +/- 2.43 %); type: functional
Rattus norvegicus [8] = experiment: Anticoagulant activity in platelet-rich plasma isolated from Sprague-Dawley rat assessed as activated partial thromboplastin time at 46 mg/kg, ig bid for 7 days (reference value: 17.6 +/- 0.92 secs); type: functional
Rattus norvegicus [9] = experiment: Anticoagulant activity in platelet-rich plasma isolated from Sprague-Dawley rat assessed as prothrombin time at 46 mg/kg, ig bid for 7 days (reference value: 11.6 +/- 0.98 secs); type: functional
Rattus norvegicus [10] = experiment: Anticoagulant activity in platelet-rich plasma isolated from Sprague-Dawley rat assessed as thrombin time at 46 mg/kg, ig bid for 7 days (reference value: 47.1 +/- 3.1 secs); type: functional
Mus musculus [11] = experiment: Toxicity in Balb/c mouse assessed as red blood cell count at 66.2 mg/kg, ig bid for 7 days (reference value: 7.55 +/- 0.59 10^12/L); type: organism-based; settings: in vivo, po, 168 h
Mus musculus [12] = experiment: Toxicity in Balb/c mouse assessed as platelet count at 66.2 mg/kg, ig bid for 7 days (reference value: 802 +/- 74 10^9/L); type: organism-based; settings: in vivo, po, 168 h

C[C@@H]1CC[C@@]2(OC1)O[C@H]1C[C@H]3[C@@H]4CC=C5C[C@@H](O)CC[C@]5(C)[C@H]4CC[C@]3(C)[C@H]1[C@@H]2C [DISOGENIN]
Activity (Mus musculus [1]): 7.99 ×10⁹ /L | Activity (Mus musculus [2]): 137 g/L | Activity (Mus musculus [3]): 39.4% | UI (Rattus norvegicus [4]): 1.33 | Activity (Rattus norvegicus [5]): Non-toxic | Activity (Rattus norvegicus [6]): Non-toxic | Activity (Rattus norvegicus [7]): 49.14% | APTT (Rattus norvegicus [8]): 19.2 s | PT (Rattus norvegicus [9]): 15.2 s | TT (Rattus norvegicus [10]): 53.2 s | Activity (Mus musculus [11]): 7.45 ×10¹² /L | Activity (Mus musculus [12]): 788 ×10⁹ /L
